According to patent publication US8912198B2, “Compounds useful as inhibitors of ATR kinase” (Vertex Pharmaceuticals Incorporated, priority 2012, dated 2014):

Tests used:
intracellular ATR = target: T1, intracellular ATR (Homo sapiens, UniProt Q13535); assay: Cellular ATR inhibition assay, H2AX phosphorylation in hydroxyurea treated HT29 cells; type: cell-based; conditions: 2 mM hydroxyurea, phosphorylated H2AX Ser139 positive nuclei
T1 construct: endogenous in cells; host or cells: HT29
Protocol: Compounds can be screened for their ability to inhibit intracellular ATR using an immunofluorescence microscopy assay to detect phosphorylation of the ATR substrate histone H2AX in hydroxyurea treated cells. HT29 cells are plated at 14,000 cells per well in 96-well black imaging plates (BD 353219) in McCoy's 5A media (Sigma M8403) supplemented with 10% foetal bovine serum (JRH Biosciences 12003), Penicillin/Streptomycin solution diluted 1:100 (Sigma P7539), and 2 mM L-glumtamine (Sigma G7513), and allowed to adhere overnight at 37° C. in 5% CO2. Compounds are then added to the cell media from a final concentration of 25 μM in 3-fold serial dilutions and the cells are incubated at 37° C. in 5% CO2. After 15 min, hydroxyurea (Sigma H8627) is added to a final concentration of 2 mM.
After 45 min of treatment with hydroxyurea, the cells are washed in PBS, fixed for 10 min in 4% formaldehyde diluted in PBS (Polysciences Inc 18814), washed in 0.2% Tween-20 in PBS (wash buffer), and permeabilised for 10min in 0.5% Triton X-100 in PBS, all at room temperature. The cells are then washed once in wash buffer and blocked for 30 min at room temperature in 10% goat serum (Sigma G9023) diluted in wash buffer (block buffer). To detect H2AX phosphorylation levels, the cells are then incubated for 1 h at room temperature in primary antibody (mouse monoclonal anti-phosphorylated histone H2AX Ser139 antibody; Upstate 05-636) diluted 1:250 in block buffer. The cells are then washed five times in wash buffer before incubation for lh at room temperature in the dark in a mixture of secondary antibody (goat anti-mouse Alexa Fluor 488 conjugated antibody; Invitrogen A11029) and Hoechst stain (Invitrogen H3570); diluted 1:500 and 1:5000, respectively, in wash buffer. The cells are then washed five times in wash buffer and finally 100 ul PBS is added to each well before imaging.
Cells are imaged for Alexa Fluor 488 and Hoechst intensity using the BD Pathway 855 Bioimager and Attovision software (BD Biosciences, Version 1.6/855) to quantify phosphorylated H2AX Ser139 and DNA staining, respectively. The percentage of phosphorylated H2AX-positive nuclei in a montage of 9 images at 20× magnification is then calculated for each well using BD Image Data Explorer software (BD Biosciences Version 2.2.15). Phosphorylated H2AX-positive nuclei are defined as Hoechst-positive regions of interest containing Alexa Fluor 488 intensity at 1.75-fold the average Alexa Fluor 488 intensity in cells not treated with hydroxyurea. The percentage of H2AX positive nuclei is finally plotted against concentration for each compound and IC50s for intracellular ATR inhibition are determined using Prism software (GraphPad Prism version 3.0cx for Macintosh, GraphPad Software, San Diego Calif., USA).

full-length ATR = target: T2, full-length ATR (Homo sapiens, UniProt Q13535); assay: ATR inhibition assay, radioactive-phosphate incorporation; type: biochemical; conditions: Ki(app); 5 nM full-length ATR, 10 μM ATP, 800 μM target peptide, 25° C.
T2 construct: Assays were carried out at 25° C. in the presence of 5 nM full-length ATR
T2 sequence (Q13535 whole entry): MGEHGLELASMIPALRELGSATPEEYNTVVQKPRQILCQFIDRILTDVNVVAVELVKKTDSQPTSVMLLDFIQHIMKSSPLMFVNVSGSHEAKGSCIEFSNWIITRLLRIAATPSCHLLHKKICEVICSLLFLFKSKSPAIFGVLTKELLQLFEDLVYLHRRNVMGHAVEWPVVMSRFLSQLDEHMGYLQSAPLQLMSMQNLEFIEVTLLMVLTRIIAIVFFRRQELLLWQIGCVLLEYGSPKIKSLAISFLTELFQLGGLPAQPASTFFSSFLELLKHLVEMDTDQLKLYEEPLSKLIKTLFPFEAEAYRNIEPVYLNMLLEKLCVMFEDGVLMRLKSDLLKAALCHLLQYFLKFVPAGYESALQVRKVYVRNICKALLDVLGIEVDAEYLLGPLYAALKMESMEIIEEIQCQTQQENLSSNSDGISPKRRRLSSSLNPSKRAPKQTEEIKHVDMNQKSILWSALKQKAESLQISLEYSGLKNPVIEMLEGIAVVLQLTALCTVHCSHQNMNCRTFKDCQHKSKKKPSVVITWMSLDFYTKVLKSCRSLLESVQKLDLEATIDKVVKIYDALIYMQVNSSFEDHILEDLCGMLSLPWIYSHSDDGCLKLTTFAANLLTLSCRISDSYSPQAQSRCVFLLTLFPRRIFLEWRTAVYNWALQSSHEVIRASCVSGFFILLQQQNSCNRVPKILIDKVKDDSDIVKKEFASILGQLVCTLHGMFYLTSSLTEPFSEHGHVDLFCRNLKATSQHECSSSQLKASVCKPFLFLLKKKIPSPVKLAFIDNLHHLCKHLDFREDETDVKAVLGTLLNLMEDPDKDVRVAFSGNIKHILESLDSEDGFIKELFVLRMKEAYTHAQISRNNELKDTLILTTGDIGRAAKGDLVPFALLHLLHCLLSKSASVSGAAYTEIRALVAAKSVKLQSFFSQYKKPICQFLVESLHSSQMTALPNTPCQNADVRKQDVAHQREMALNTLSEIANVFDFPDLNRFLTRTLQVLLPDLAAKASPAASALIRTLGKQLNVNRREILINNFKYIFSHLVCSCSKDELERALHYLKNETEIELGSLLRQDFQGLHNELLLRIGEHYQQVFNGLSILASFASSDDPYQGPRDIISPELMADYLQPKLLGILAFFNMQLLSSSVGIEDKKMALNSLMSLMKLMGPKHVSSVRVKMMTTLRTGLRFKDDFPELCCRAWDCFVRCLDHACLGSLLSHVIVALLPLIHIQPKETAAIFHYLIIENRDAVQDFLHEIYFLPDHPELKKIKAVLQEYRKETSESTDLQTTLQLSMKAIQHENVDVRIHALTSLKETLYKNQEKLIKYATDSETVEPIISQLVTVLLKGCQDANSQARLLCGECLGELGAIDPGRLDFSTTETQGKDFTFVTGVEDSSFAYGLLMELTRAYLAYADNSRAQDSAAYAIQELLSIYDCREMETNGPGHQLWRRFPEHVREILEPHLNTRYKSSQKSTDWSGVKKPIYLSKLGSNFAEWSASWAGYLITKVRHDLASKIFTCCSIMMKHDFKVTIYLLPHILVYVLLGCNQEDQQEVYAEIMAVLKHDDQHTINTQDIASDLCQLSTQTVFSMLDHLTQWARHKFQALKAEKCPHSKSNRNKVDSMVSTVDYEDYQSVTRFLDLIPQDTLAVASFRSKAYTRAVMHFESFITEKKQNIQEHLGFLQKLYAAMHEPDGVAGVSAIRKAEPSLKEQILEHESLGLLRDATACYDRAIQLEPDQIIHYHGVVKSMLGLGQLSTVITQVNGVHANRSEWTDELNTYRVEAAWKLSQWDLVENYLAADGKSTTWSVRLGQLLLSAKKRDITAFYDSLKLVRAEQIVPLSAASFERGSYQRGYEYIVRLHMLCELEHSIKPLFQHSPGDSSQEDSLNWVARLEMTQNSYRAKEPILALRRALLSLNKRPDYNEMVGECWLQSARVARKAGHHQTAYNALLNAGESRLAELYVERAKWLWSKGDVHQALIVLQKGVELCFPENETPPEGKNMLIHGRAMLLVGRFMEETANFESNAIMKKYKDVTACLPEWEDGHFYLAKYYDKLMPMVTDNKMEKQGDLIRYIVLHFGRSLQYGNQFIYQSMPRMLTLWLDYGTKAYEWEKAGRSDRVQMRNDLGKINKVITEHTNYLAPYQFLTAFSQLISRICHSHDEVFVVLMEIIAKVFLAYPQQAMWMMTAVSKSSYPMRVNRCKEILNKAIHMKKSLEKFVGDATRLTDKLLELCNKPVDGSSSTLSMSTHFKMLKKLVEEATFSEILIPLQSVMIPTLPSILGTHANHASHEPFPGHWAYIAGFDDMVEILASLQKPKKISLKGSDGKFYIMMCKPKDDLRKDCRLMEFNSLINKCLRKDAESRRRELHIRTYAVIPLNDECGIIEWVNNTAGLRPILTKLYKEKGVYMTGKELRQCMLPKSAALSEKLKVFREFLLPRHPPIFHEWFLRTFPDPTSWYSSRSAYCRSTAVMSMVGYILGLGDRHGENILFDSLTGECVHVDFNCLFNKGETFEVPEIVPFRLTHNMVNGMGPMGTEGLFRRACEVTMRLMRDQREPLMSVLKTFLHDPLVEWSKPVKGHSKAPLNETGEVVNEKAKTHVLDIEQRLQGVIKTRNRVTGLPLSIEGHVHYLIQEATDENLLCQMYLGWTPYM
Protocol: Compounds were screened for their ability to inhibit ATR kinase using a radioactive-phosphate incorporation assay. Assays were carried out in a mixture of 50 mM Tris/HCl (pH 7.5), 10 mM MgCl2 and 1 mM DTT. Final substrate concentrations were 10 μM [γ-33P]ATP (3 mCi 33P ATP/mmol ATP, Perkin Elmer) and 800 μM target peptide (ASELPASQPQPFSAKKK (SEQ. ID NO: 1)).
Assays were carried out at 25° C. in the presence of 5 nM full-length ATR. An assay stock buffer solution was prepared containing all of the reagents listed above, with the exception of ATP and the test compound of interest. 13.5 μL of the stock solution was placed in a 96 well plate followed by addition of 2 μL of DMSO stock containing serial dilutions of the test compound (typically starting from a final concentration of 15 μM 3-fold serial dilutions) in duplicate (final DMSO concentration 7%). The plate was pre-incubated for 10 minutes at 25° C. and the reaction initiated by addition of 15 μL [γ-33P]ATP (final concentration 10 μM).
The reaction was stopped after […] by the addition of 30 μL 0.1M phosphoric acid containing 2 mM ATP. A multiscreen phosphocellulose filter 96-well plate (Millipore, Cat no. MAPHN0B50) was pretreated with 100 μL 0.2M phosphoric acid prior to the addition of 45 μL of the stopped assay mixture. The plate was washed with 5×200 μL 0.2M phosphoric acid. After drying, 100 μL Optiphase ‘SuperMix’ liquid scintillation cocktail (Perkin Elmer) was added to the well prior to scintillation counting (1450 Microbeta Liquid Scintillation Counter, Wallac).
After removing mean background values for all of the data points, Ki(app) data were calculated from non-linear regression analysis of the initial rate data using the Prism software package (GraphPad Prism version 3.0cx for Macintosh, GraphPad Software, San Diego, Calif., USA).

[1] = system: HCT116 colorectal cancer cells; assay: Single agent HCT116 activity, 96 h cell viability (MTS) assay; type: cell-based; conditions: Homo sapiens, HCT-116; 96 h MTS cell viability, compound alone; read-out: Single agent HT116 IC50
Protocol: Compounds can be screened for single agent activity against HCT116 colorectal cancer cells using a 96 h cell viability (MTS) assay. HCT116 are plated at 470 cells per well in 96-well polystyrene plates (Costar 3596) in 150 μl of McCoy's 5A media (Sigma M8403) supplemented with 10% foetal bovine serum (JRH Biosciences 12003), Penicillin/Streptomycin solution diluted 1:100 (Sigma P7539), and 2 mM L-glumtamine (Sigma G7513), and allowed to adhere overnight at 37° C. in 5% CO2. Compounds are then added to the cell media in 2-fold serial dilutions from a top final concentration of 10 μM as a full matrix of concentrations in a final cell volume of 200 μl, and the cells are then incubated at 37° C. in 5% CO2. After 96 h, 40 μl of MTS reagent (Promega G358a) is added to each well and the cells are incubated for lh at 37° C. in 5% CO2. Finally, absorbance is measured at 490 nm using a SpectraMax Plus 384 reader (Molecular Devices) and IC50 values can be calculated.

[2] = system: HCT116 colorectal cancer cells; assay: Cisplatin sensitization assay, 96 h cell viability (MTS); type: cell-based; conditions: concentration of compound required to reduce the IC50 of Cisplatin alone by at least 3-fold; HCT116, 96 h MTS
Protocol: Compounds can be screened for their ability to sensitize HCT116 colorectal cancer cells to Cisplatin using a 96 h cell viability (MTS) assay. […] Compounds and Cisplatin are then both added simultaneously to the cell media in 2-fold serial dilutions from a top final concentration of 10 μM as a full matrix of concentrations in a final cell volume of 200 μl and the cells are then incubated at 37° C. in 5% CO2. After 96 h, 40 μl of MTS reagent (Promega G358a) is added to each well and the cells are incubated for lh at 37° C. in 5% CO2. Finally, absorbance is measured at 490 nm using a SpectraMax Plus 384 reader (Molecular Devices) and the concentration of compound required to reduce the IC50 of Cisplatin alone by at least 3-fold (to 1 decimal place) can be reported.

T1 sequence (Q13535 whole entry): as above
T1 sequence (Q8WXE1 whole entry partner): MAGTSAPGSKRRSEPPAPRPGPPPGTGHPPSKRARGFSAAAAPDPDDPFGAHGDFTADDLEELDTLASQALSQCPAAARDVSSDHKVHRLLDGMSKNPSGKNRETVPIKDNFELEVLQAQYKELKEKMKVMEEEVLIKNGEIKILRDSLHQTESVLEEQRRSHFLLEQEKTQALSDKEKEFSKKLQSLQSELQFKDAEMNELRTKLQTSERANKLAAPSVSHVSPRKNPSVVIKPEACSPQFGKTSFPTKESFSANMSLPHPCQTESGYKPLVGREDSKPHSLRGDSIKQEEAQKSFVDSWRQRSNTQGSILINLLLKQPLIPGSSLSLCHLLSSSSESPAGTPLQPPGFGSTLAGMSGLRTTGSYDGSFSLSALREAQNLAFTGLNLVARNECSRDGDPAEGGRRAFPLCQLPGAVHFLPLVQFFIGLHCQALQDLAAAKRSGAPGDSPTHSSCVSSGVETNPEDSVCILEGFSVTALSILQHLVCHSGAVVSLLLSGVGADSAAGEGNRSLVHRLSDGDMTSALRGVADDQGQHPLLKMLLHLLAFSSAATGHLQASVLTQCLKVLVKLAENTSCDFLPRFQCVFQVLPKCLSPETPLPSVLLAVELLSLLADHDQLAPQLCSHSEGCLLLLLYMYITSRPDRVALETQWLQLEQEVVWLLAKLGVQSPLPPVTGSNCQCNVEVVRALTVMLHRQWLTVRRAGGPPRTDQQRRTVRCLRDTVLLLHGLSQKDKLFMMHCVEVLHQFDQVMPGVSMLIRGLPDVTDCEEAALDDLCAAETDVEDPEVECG

IC50 (intracellular ATR) [nM] | Ki (full-length ATR) [nM] | IC50 [1] [nM] | SMILES | Cisplatin sensitization [2] [nM]
13 | 0.35 | 52 | CC(C)S(=O)(=O)c1ccc(-c2cnc(N)c(-c3cc(-c4ccc(NC[C@H]5CCCN5)cc4)no3)n2)cc1 [Compound I-4, (R)-5-(4-(isopropylsulfonyl)phenyl)-3-(3-(4-((pyrrolidin-2-ylmethyl)amino)phenyl)isoxazol-5-yl)pyrazin-2-amine] | 39
< 10 | < 0.1 | 26 | CC(C)S(=O)(=O)c1ccc(-c2cnc(N)c(-c3cc(-c4ccc(NCC5CCCN5)cc4)no3)n2)cc1 (stereo not drawn) [Compound I-5, 5-(4-isopropylsulfonylphenyl)-3-[3-[4-(pyrrolidin-2-ylmethylamino)phenyl]isoxazol-5-yl]pyrazin-2-amine] | 20
62 | 0.635 | 210 | CC(C)S(=O)(=O)c1ccc(-c2cnc(N)c(-c3cc(-c4ccc(NCC5CCCCN5)cc4)no3)n2)cc1 (stereo not drawn) [Compound I-1, 5-(4-isopropylsulfonylphenyl)-3-[3-[4-(2-piperidylmethylamino)phenyl]isoxazol-5-yl]pyrazin-2-amine] | 156
260 | 0.405 | 720 | CC(C)S(=O)(=O)c1ccc(-c2cnc(N)c(-c3cc(-c4ccc(NCCN(C)C)cc4)no3)n2)cc1 [Compound I-6, N-(4-(5-(3-amino-6-(4-(isopropylsulfonyl)phenyl)pyrazin-2-yl)isoxazol-3-yl)phenyl)-N,N-dimethylethane-1,2-diamine] | 78
40 | 0.6 | 140 | CC(C)S(=O)(=O)c1ccc(-c2cnc(N)c(-c3cc(-c4ccc(NCC5CCN5)cc4)no3)n2)cc1 (stereo not drawn) [Compound I-2, 3-[3-[4-(azetidin-2-ylmethylamino)phenyl]isoxazol-5-yl]-5-(4-isopropylsulfonylphenyl)pyrazin-2-amine] | 78
14 | 0.49 | 83 | CC(C)S(=O)(=O)c1ccc(-c2cnc(N)c(-c3cc(-c4ccc(NC[C@@H]5CCCN5)cc4)no3)n2)cc1 [Compound I-3, (S)-5-(4-(isopropylsulfonyl)phenyl)-3-(3-(4-((pyrrolidin-2-ylmethyl)amino)phenyl)isoxazol-5-yl)pyrazin-2-amine] | 20
